{"source": "patent US4127535A", "about": "“Novel dipeptides, intermediates therefor, and compositions and methods employing said dipeptides” (priority 1977, dated 1978)", "origin": "cited, not measured here", "key": {"[1]": {"settings": "literature"}, "[2]": {"tested_on": "partially purified brain opiate receptor sites", "settings": "literature, Bradbury et al."}, "[3]": {"settings": "injected directly into the brain of the rat; Belluzzi et al."}}, "data": [{"substance": "H-Tyr-Gly-Gly-Phe-Met-OH [methionine enkephalin]", "values": [{"measurement": "activity in bioassays for opiate activity", "setting": "[1]", "result": "very active"}, {"measurement": "binding to partially purified brain opiate receptor sites", "setting": "[2]", "result": "binds stereo-specifically"}, {"measurement": "analgesic activity", "setting": "[3]", "result": "weak analgesic agent of short duration"}]}]}
